The text below walks through data of ChEMBL document CHEMBL4483862, “Open-source discovery of chemical leads for next-generation chemoprotective antimalarials” (2018).

Bounds are passed on as bounds.

This assay relates to Plasmodium berghei. Nature of the assay: Luciferase/luciferin-expressing antifolate-resistant parasites were used to infect a culture of HepG2 cells that were pre-incubated with compounds. Infected hepatocytes emit light due to the luciferase reaction. Assay results are presented as the percent inhibition of light emission compared to control. […]. It is filed as functional. To be noted: sporozoite; for IC90: read-out: LUCIFERASE INFECTION ASSAY - IC90.

[1] abbreviates: read-out: LUCIFERASE INFECTION ASSAY - IC50.

One may read the IC50 as the concentration that inhibits the measured activity by half. In general, IC90 refers to the point of the concentration-response curve where the effect stands at 90%. On to `Cn1cnc2cnc(Nc3ccc(F)c(Cl)c3)cc21`, for which the IC90 is more than 10 µM. Also, the IC50 (HEPG2TOX_HILL_SLOPE 2.92, HEPG2TOX_R_SQUARED 0.693, read-out: LUCIFERASE INFECTION ASSAY - IC50) was more than 10 µM.

Regarding `CCOC(=O)C1=C(CSc2nc(-c3ccc(C)cc3)c(-c3ccc(C)cc3)[nH]2)NC(=O)NC1C` (stereo not given), the IC90 is more than 10 µM. For the same molecule, the half-inhibitory concentration (IC50) under setting [1] is more than 10 µM.

Consider `CN(Cc1nc2ccccc2s1)C(=O)c1cccc(C#N)c1`, for which the IC90 is more than 10 µM. Also, the IC50 under setting [1] is more than 10 µM.

Take `Cc1ccc2nc(CN3CCN(C(c4ccc(F)cc4)c4ccc(F)cc4)CC3)cc(=O)n2c1`: the IC90 is 4.14 µM. The IC50 (PBLUC_HILL_SLOPE 12.7, PBLUC_R_SQUARED 0.219, read-out: LUCIFERASE INFECTION ASSAY - IC50) was determined as 3.48 µM.

Regarding `O=C(NCCc1cccs1)N1CCc2nc(NCc3cccc(Oc4ccccc4)c3)ncc2C1`, the IC90 was more than 6.8 µM. Moreover, under setting [1], the IC50 is more than 6.8 µM.

As to `C=C(C)C/N=c1\scc(-c2ccc(OC)cc2OC)n1/N=C(\C)c1ccc(OC)cc1`, the IC90 was more than 10 µM. Further, the IC50 (FFLUC_HILL_SLOPE 13, FFLUC_R_SQUARED 0.36, read-out: LUCIFERASE INFECTION ASSAY - IC50) was more than 10 µM.

`O=C(CN1CCN(Cc2cc(=O)oc3cc4c(cc23)CCC4)CC1)Nc1ccc(Cl)c(C(F)(F)F)c1`: the IC90 was more than 10 µM. Further, the IC50 (PBLUC_HILL_SLOPE 2.35, PBLUC_R_SQUARED 0.537, read-out: LUCIFERASE INFECTION ASSAY - IC50) is 5.82 µM.

With `Clc1cncc2c1Sc1ccccc1N2`, the IC90 is more than 14.1 µM. The IC50 under setting [1] turned out to be 14 µM.

Regarding `COc1cc(-c2cc3[nH]c4ccccc4n3c(=O)c2Sc2ccc([N+](=O)[O-])cc2)cc(OC)c1OC`, the IC90 worked out at 9.18 µM. Where the note is “PBLUC_HILL_SLOPE 1.34, PBLUC_R_SQUARED 0.513, read-out: LUCIFERASE INFECTION ASSAY - IC50”, the IC50 is 1.78 µM.

For `O=C(NC1CC1)c1ccc(-c2cnc3cnc(/C=C/c4ccccc4)cn23)cc1`, the IC90 was more than 8.67 µM. Also, the IC50 (HEPG2TOX_HILL_SLOPE 0.214, HEPG2TOX_R_SQUARED 0.714, PBLUC_HILL_SLOPE 0.95, PBLUC_R_SQUARED 0.815, read-out: LUCIFERASE INFECTION ASSAY - IC50) was 1.05 µM.

On to `COc1ccc(NC(C(=O)Nc2cccc(C(F)(F)F)c2)c2ccccc2)cc1OC` (stereo not given), for which the IC90 was more than 10 µM. In addition, the IC50 (PBLUC_HILL_SLOPE 1.54, PBLUC_R_SQUARED 0.609, read-out: LUCIFERASE INFECTION ASSAY - IC50) amounted to 5.09 µM.

Turning to `O=C(Nc1ncc(Cc2ccc(Br)cc2)s1)c1ccc2n[nH]nc2c1`, the IC90 came out at 1.27 µM. Under “HEPG2TOX_HILL_SLOPE 1.09, HEPG2TOX_R_SQUARED 0.989, PBLUC_HILL_SLOPE 1.74, PBLUC_R_SQUARED 0.819, read-out: LUCIFERASE INFECTION ASSAY - IC50”, the IC50 was 0.359 µM.

For `C=CCNc1sc(C(=O)/C(C#N)=C2\Nc3ccccc3S2)c(N)c1C(=O)Nc1ccc(Cl)cc1`, the IC90 stood at 4.13 µM. Also, the IC50 (FFLUC_HILL_SLOPE 4, FFLUC_R_SQUARED 0.164, HEPG2TOX_HILL_SLOPE 6.65, HEPG2TOX_R_SQUARED 0.57, PBLUC_HILL_SLOPE 11, PBLUC_R_SQUARED 0.696, read-out: LUCIFERASE INFECTION ASSAY - IC50) stood at 3.38 µM.

On to `CCC1=C(C(=O)OC)C(c2c(F)cccc2F)NC(=S)N1c1ccc2c(c1)OCCO2` (stereo not given), for which the IC90 is more than 10 µM. Also, for the setting “PBLUC_HILL_SLOPE 2.5, PBLUC_R_SQUARED 0.683, read-out: LUCIFERASE INFECTION ASSAY - IC50”, the IC50 was 6.87 µM.

As for `COCCNc1cc(C(C)C)nc2c(-c3ccccc3)cnn12`, the IC90 is more than 10.6 µM. Besides, for the setting “PBLUC_HILL_SLOPE 1.73, PBLUC_R_SQUARED 0.539, read-out: LUCIFERASE INFECTION ASSAY - IC50”, the IC50 came to 3.04 µM.

With `FC(F)(F)c1csc(Nc2ccc(Cl)c(Cl)c2)n1`, the IC90 is more than 10.5 µM. Also, under setting [1], the IC50 was determined as 10.4 µM.

Take `O=C(c1cn(-c2ccccc2)nc1-c1cc2ccccc2oc1=O)n1nnc2ccccc21`: the IC90 is 3.36 µM. For the same molecule, the IC50 under setting [1] turned out to be 3.27 µM.

`Clc1ccc(-c2csc3ncnc(NCc4ccc(N5CCOCC5)nc4)c23)cc1`: the IC90 was more than 10 µM. In addition, the half-inhibitory concentration (IC50) (HEPG2TOX_HILL_SLOPE 1.06, HEPG2TOX_R_SQUARED 0.974, PBLUC_HILL_SLOPE 2.24, PBLUC_R_SQUARED 0.328, read-out: LUCIFERASE INFECTION ASSAY - IC50) was determined as 5.51 µM.

As to `CCOc1ccc(C=C(c2nc3ccccc3s2)c2nc3ccccc3s2)c(O)c1`, the IC90 is more than 10 µM. Also, the IC50 under setting [1] turned out to be 6.72 µM.

In the case of `Cc1c(C(=O)O)cc(-c2ccccc2)n1CCNC(=O)OC(C)(C)C`, the IC90 is more than 9.58 µM. In addition, under setting [1], the IC50 was more than 9.58 µM.

Regarding `COCOc1ccc(-c2cc(-c3ccc(C(N)=O)cc3)cnc2N)cc1`, the IC90 stood at 3.43 µM. For the same molecule, where the note is “PBLUC_HILL_SLOPE 15.5, PBLUC_R_SQUARED 0.616, read-out: LUCIFERASE INFECTION ASSAY - IC50”, the half-maximal inhibitory concentration (IC50) stood at 2.98 µM.

Regarding `Cc1ccc(Sc2ncnc3sccc23)cc1`, the IC90 was more than 12.8 µM. Also, the IC50 under setting [1] is more than 12.8 µM.

Turning to `CC(C)[C@@H](CO)Nc1nccn2c(-c3cccc(OC(F)(F)F)c3)cnc12`, the IC90 was determined as 6.18 µM. The IC50 (HEPG2TOX_HILL_SLOPE 1.77, HEPG2TOX_R_SQUARED 0.938, PBLUC_HILL_SLOPE 1.99, PBLUC_R_SQUARED 0.624, read-out: LUCIFERASE INFECTION ASSAY - IC50) is 2.05 µM.

Turning to `Cc1ccc(NC(=O)/C(=N/N)c2c(-c3ccccc3)nc3ccccn23)c(Br)c1`, the IC90 was more than 10 µM. Also, the IC50 under setting [1] was more than 10 µM.

In the case of `C[C@]12CC[C@H](O)C[C@H]1CCC1C2[C@H](O)C[C@]2(C)[C@@H](C3=CC(=O)OC3)CC[C@]12O` (stereo not given in full), the IC90 was more than 8.45 µM. The half-maximal inhibitory concentration (IC50) (HEPG2TOX_HILL_SLOPE 3.83, HEPG2TOX_R_SQUARED 0.791, PBLUC_HILL_SLOPE 2.47, PBLUC_R_SQUARED 0.389, read-out: LUCIFERASE INFECTION ASSAY - IC50) is 3.98 µM.

Turning to `O=C(Nc1ccc(F)cc1)c1cccc(C(=O)Nc2ccc(F)cc2)n1`, the IC90 is 5.69 µM. Besides, the IC50 under setting [1] stood at 3.45 µM.

Regarding `COc1cccc(/C=C2\Oc3c(CN4CCN(C)CC4)c(O)cc(C)c3C2=O)c1`, the IC90 is more than 8.37 µM. For the same molecule, the IC50 under setting [1] is more than 8.37 µM.

Regarding `O=C(Nc1ccc(Oc2ccnc3cc(Cl)ccc23)cc1)c1ccco1`, the 90% effect concentration (IC90) was determined as 2.99 µM. For the same molecule, where the note is “PBLUC_HILL_SLOPE 3.16, PBLUC_R_SQUARED 0.555, read-out: LUCIFERASE INFECTION ASSAY - IC50”, the 50% inhibitory concentration (IC50) is 1.49 µM.

As for `O=S(=O)(Oc1cncc(Cl)c1)c1cc(Cl)cc(Cl)c1`, the IC90 was more than 9.75 µM. For the same molecule, where the note is “PBLUC_HILL_SLOPE 1.51, PBLUC_R_SQUARED 0.362, read-out: LUCIFERASE INFECTION ASSAY - IC50”, the IC50 worked out at 8.89 µM.

`Cc1ccc(-c2nnc(NC(=O)c3cccc(S(=O)(=O)N4CCc5ccccc54)c3)[nH]2)cc1`: the IC90 is more than 10 µM. Moreover, the IC50 under setting [1] was 8.49 µM.

In the case of `COC(=O)c1ccc(N2CCN(c3ccccc3Cl)CC2)nc1`, the concentration for an effect of 90% (IC90) was more than 9.95 µM. The IC50 (HEPG2TOX_HILL_SLOPE 4.29, HEPG2TOX_R_SQUARED 0.95, PBLUC_HILL_SLOPE 9.99, PBLUC_R_SQUARED 0.342, read-out: LUCIFERASE INFECTION ASSAY - IC50) stood at 8.41 µM.

`NC(c1ccccc1)c1csc(NC(=O)NC(c2ccccc2)c2ccccc2)n1` (stereo not given): the IC90 was more than 7.96 µM. In addition, under setting [1], the IC50 was more than 7.96 µM.

Regarding `Cc1cc2nc(Oc3ccc4c(c3)CCC4)c3ccccc3n2n1`, the IC90 was more than 10 µM. Also, the IC50 under setting [1] is more than 10 µM.

`O=C(NNc1cccc(Cl)c1)c1c[nH]c(=S)n1-c1ccccc1`: the concentration for an effect of 90% (IC90) was more than 10 µM. The IC50 (PBLUC_HILL_SLOPE 16, PBLUC_R_SQUARED 0.438, read-out: LUCIFERASE INFECTION ASSAY - IC50) is 9.92 µM.

With `Cc1cc(Cl)n2ncc(-c3ccc(F)cc3)c2n1`, the concentration for an effect of 90% (IC90) came out at 12.3 µM. The concentration for half-maximal inhibition (IC50) (HEPG2TOX_HILL_SLOPE 0.63, HEPG2TOX_R_SQUARED 0.416, PBLUC_HILL_SLOPE 2.81, PBLUC_R_SQUARED 0.71, read-out: LUCIFERASE INFECTION ASSAY - IC50) turned out to be 5.62 µM.

Consider `CCc1ccc(-c2nnc(SC(C)C(=O)NC3CCCCC3)[nH]2)cc1` (stereo not given), for which the IC90 is more than 10 µM. The IC50 (HEPG2TOX_HILL_SLOPE 1.62, HEPG2TOX_R_SQUARED 0.795, read-out: LUCIFERASE INFECTION ASSAY - IC50) is more than 10 µM.

`Fc1ccccc1-c1cnn2c(NCCc3ccccn3)ccnc12`: the IC90 came out at 0.681 µM. For the same molecule, where the note is “FFLUC_HILL_SLOPE 1.74, FFLUC_R_SQUARED 0.803, PBLUC_HILL_SLOPE 0.998, PBLUC_R_SQUARED 0.825, read-out: LUCIFERASE INFECTION ASSAY - IC50”, the IC50 worked out at 0.0754 µM.

As for `Cn1c(SCC(=O)NC2CCCc3ccccc32)nnc1-c1cccnc1` (stereo not given), the IC90 was more than 10 µM. In addition, the IC50 (PBLUC_HILL_SLOPE 11.1, PBLUC_R_SQUARED 0.239, read-out: LUCIFERASE INFECTION ASSAY - IC50) amounted to 8.8 µM.

As to `COc1cc(-c2nc3ccc(NC(=O)Nc4cccc(C(F)(F)F)c4)cn3n2)cc(OC)c1OC`, the IC90 is 8.43 µM. The IC50 (HEPG2TOX_HILL_SLOPE 15.4, HEPG2TOX_R_SQUARED 0.156, PBLUC_HILL_SLOPE 4.31, PBLUC_R_SQUARED 0.169, read-out: LUCIFERASE INFECTION ASSAY - IC50) turned out to be 5.06 µM.

As to `Cc1cc2c(cc1C)CSC(c1ccccc1OC(=O)c1cccc3ccccc13)SC2`, the IC90 is more than 10 µM. The IC50 (FFLUC_HILL_SLOPE 3.12, FFLUC_R_SQUARED 0.597, read-out: LUCIFERASE INFECTION ASSAY - IC50) was more than 10 µM.
